Publication PMC12992715, “Dual interference with host neuropeptide signaling allows parasitoid wasp to hijack host sugar metabolism” (The EMBO Journal, 2025)
No end group written: not given here.

How the values were obtained:
PxsNPFR = assay: qPCR of PxHK / PxGP upon synthetic sNPF with dsPxsNPFR treatment; format: in vivo, Plutella xylostella; conditions: non-parasitised larvae, 3L, 0.5 ng sPxsNPF-1 + dsPxsNPFR; n = 6-7; words
Description: (§1) To analyse gene expression in different tissues, P. xylostella larvae were dissected under the microscope, followed by the collection of the silk gland, fat body, midgut, haemocytes and central nervous system (CNS, brain and ventral nerve cord). Haemocytes were collected on clean Parafilm membranes with capillaries by bleeding the larvae from a cut proleg. To explore gene expression at different instars of parasitised or non-parasitised larvae, non-parasitised larva was isolated individually using RNA-easy Isolation Reagent (Vazyme). Parasitoid larvae were removed before parasitised hosts were isolated. As for the measurement of other experiments, per larva with different treatments was isolated individually using RNA-easy Isolation Reagent according to the manufacturer’s instructions.
The quality and concentrations of total RNAs were estimated by electrophoresis and NanoDrop 2000 spectrophotometer (Thermo Fisher Scientific). […] Relative gene expression levels were calculated using the 2^−ΔΔCt method. […]
DNA fragments of ∼500 bp in size were amplified by PCR. […] Synthetic dsRNA was confirmed by an agarose gel, and the concentration was determined by NanoDrop2000 spectrophotometer (Thermo Scientific). About 500 ng of dsRNA was injected into P. xylostella larvae 72 h post-parasitisation, and the RNAi efficiency was detected 48 h post-injection by qPCR. […]

PxHK mRNA in the midgut = assay: Ex vivo midgut incubation with sNPF and signalling inhibitors, PxHK mRNA; format: cell-based, Plutella xylostella; conditions: Fig 6F
Method: The in vitro incubations of fat body or midgut were performed as previously described with minor modifications (Cheng et al, [2022]). The fat bodies and midguts from non-parasitised middle 4th instar P. xylostella larvae were collected in 0.5 mL of PBS. The collected tissues were then preincubated in culture dishes containing TNM-FH medium (HyClone) for 30 min. sNPF peptides or inhibitors were administered to isolated fat body and midgut in vitro using a modified method from a previous study (Oh et al, [2019]). 1 mM stock solution of pertussis toxin (PTX, Tocris Bioscience) or U73122 (MedChemExpress) was dissolved in DMSO (Sigma-Aldrich) and kept at −80 °C. 0.1 ng/µl PTX or 10 µM U73122 were then mixed with 20 µM sNPF-contained TNM-FH medium. Preincubated tissues were incubated in these mixtures at 25 °C for 1 h, followed by total RNA isolation and qPCR.

[1] = tested on: PxGP, PxHK and PxTPS mRNA; assay: qPCR of PxGP, PxHK, PxTPS in larvae injected with synthetic sNPF, venom, CvBV or teratocytes; format: in vivo, Plutella xylostella; conditions: 0.5 ng synthetic peptide, larvae whole body, 4L; n = 7-8; words
Description: as §1
The quality and concentrations of total RNAs were estimated by electrophoresis and NanoDrop 2000 spectrophotometer (Thermo Fisher Scientific). First-strand cDNAs were synthesised using the ReverTra Ace qPCR RT kit (Toyobo) according to the manufacturer’s instructions. Both β-actin (GenBank Acc. No.: AB282645) and β-tubulin (GenBank Acc. No.: EU127912) of P. xylostella were used as internal controls. Primer sequences used for qPCR analysis are shown in Appendix Table S4. qPCR was performed by using THUNDERBIRD® SYBR qPCR Mix (Toyobo) on the CFX Connect real-time system (Bio-Rad). All qPCR assays were performed using four internal replicates and at least three biological replicates under the following conditions: 95 °C for 60 s and 40 cycles of 95 °C for 15 s and 60 °C for 30 s. Relative gene expression levels were calculated using the 2^−ΔΔCt method.
Microinjections were performed under a Stemi 2000C microscope (Zeiss) using glass capillary injection needles and an Eppendorf Femtojet (Eppendorf) with a microcontroller (Narishige). To confirm the function of bovine insulin on hosts, 1 μg bovine insulin (Sigma-Aldrich, I0305000) was injected into the middle 3rd instar P. xylostella larvae. To identify the effect of each parasitic factor on hosts, 0.05 FE CvBV or 0.05 VRE venom was injected into the abdomen of the middle 3rd instar P. xylostella larva (Wang et al, [2018]; Yu et al, [2007]). 1 TE teratocytes’ content was microinjected into the early 4th instar P. xylostella larvae. To confirm the function of each synthetic sNPF peptide, 0.005 ng, 0.05 ng, or 0.5 ng of each peptide was injected into the middle 3rd instar P. xylostella larvae in a volume of 0.1 μl/per larva once per day for 3 consecutive days.

SVRSPSRRLRF-NH2 [sPxsNPF-1, synthetic short neuropeptide F-1 of Plutella xylostella]
sNPF-induced PxHK expression after PxsNPFR knockdown (PxsNPFR): abolished following dsPxsNPFR treatment | PxHK relative expression (PxHK mRNA in the midgut; sPxsNPF-1+PTX, Average of 5 replicates, SD 0.30, control DMSO average 1.00): 1.96 | PxHK relative expression (PxHK mRNA in the midgut; sPxsNPF-1+PTX, replicate 1): 2.33 | PxHK relative expression (PxHK mRNA in the midgut; sPxsNPF-1+PTX, replicate 2): 1.83 | PxHK relative expression (PxHK mRNA in the midgut; sPxsNPF-1+PTX, replicate 3): 1.61 | PxHK relative expression (PxHK mRNA in the midgut; sPxsNPF-1+PTX, replicate 4): 1.83 | PxHK relative expression (PxHK mRNA in the midgut; sPxsNPF-1+PTX, replicate 5): 2.18 | PxHK relative expression (PxHK mRNA in the midgut; sPxsNPF-1+U73122, Average of 5 replicates, SD 0.13, control DMSO average 1.00): 0.98 | PxHK relative expression (PxHK mRNA in the midgut; sPxsNPF-1+U73122, replicate 1): 1.03 | PxHK relative expression (PxHK mRNA in the midgut; sPxsNPF-1+U73122, replicate 2): 0.92 | PxHK relative expression (PxHK mRNA in the midgut; sPxsNPF-1+U73122, replicate 3): 1.06 | PxHK relative expression (PxHK mRNA in the midgut; sPxsNPF-1+U73122, replicate 4): 0.79 | PxHK relative expression (PxHK mRNA in the midgut; sPxsNPF-1+U73122, replicate 5): 1.11 | PxHK relative expression (PxHK mRNA in the midgut; sPxsNPF-1 without inhibitor, Average of 5 replicates, SD 0.18, control DMSO average 1.00): 1.73 | PxHK relative expression (PxHK mRNA in the midgut; sPxsNPF-1 without inhibitor, replicate 1): 1.68 | PxHK relative expression (PxHK mRNA in the midgut; sPxsNPF-1 without inhibitor, replicate 2): 1.93 | PxHK relative expression (PxHK mRNA in the midgut; sPxsNPF-1 without inhibitor, replicate 3): 1.52 | PxHK relative expression (PxHK mRNA in the midgut; sPxsNPF-1 without inhibitor, replicate 4): 1.60 | PxHK relative expression (PxHK mRNA in the midgut; sPxsNPF-1 without inhibitor, replicate 5): 1.89 | PxGP mRNA expression [1]: remained unaffected | PxHK mRNA expression [1]: upregulated | PxTPS mRNA expression [1]: remained unaffected
